Data from US9557319B2, “Cell-based arrays, methods of making, and methods of using” (University of Florida Research Foundation, Inc., priority 2010, dated 2017).

Columns and labels:
[1] = Loading efficiency of small molecules in microarrayed EVA films; assay type: physicochemical
Experimental: To embed molecules into the polymer matrix, they were first dissolved in an appropriate solvent, depending on their respective hydrophobicity. A stock solution of azide (99%, Acros), a hydrophilic molecule, was dissolved in dH2O whereas Nutlin-3a (EMD Chemicals, Gibbstown, N.J.) and camptothecin (Sigma), both hydrophobic molecules, were dissolved in DMSO. Dissolved drugs were then added to 5% EVA at a 1:10 ratio of solvent:EVA. Prior to printing, polymer mixtures were vortexed for 30 s and then homogenized for 1 min before being loaded onto the source plate of the robotic mini-arrayer.
To determine the loading efficiency of factors, polymer formulations were made as described above. Films derived from 100 μl EVA loaded with factors were then made on glass coverslips and allowed to dry overnight under vacuum. Films were removed from the glass substrates and weighed. Films were washed briefly with PBS before being placed in 1 ml toluene to dissolve the polymer. Samples were then analyzed using a Nanodrop-ND-1000 spectrophotometer. Standard curves were generated for each factor, and loading efficiency was calculated as the percent of drug embedded in the polymer compared to the theoretical drug concentration.

HCT116 cells = test: HCT116 cell number (Hoechst nuclear stain) on drug-loaded microarray; assay type: cell-based, human
Description: The following figures (FIGS. 5.1 to 5.4) are micrographs taken from drug-eluting cellular microarrays, manufactured as described herein. The images are taken from individual cellular islands from the same array under various drug-loading conditions over a period of three days. HCT116 cells are nuclear stained with Hoechst for easy visibility. […] The water phase for this experiment was loaded with azide at various concentrations in addition to a control with no drug loaded. Azide is a useful probe reagent, mutagen, and preservative. Azide inhibits cytochrome oxidase by binding irreversibly to the heme cofactor in a process similar to the action of carbon monoxide. As such, it is expected to induce necrosis in cells at physiologically relevant doses.
To establish microarray fidelity, microarrays were manufactured as described above. HCT116 cells were then seeded over microarrays and incubated for 24 or 72 h. Microarrays were fixed in 4% paraformaldehyde and stained with Hoechst 34580 dye.
Camptothecin-loaded microarrays were stained with Annexin V (BD Pharminigen), fixed in 4% paraformaldehyde, and placed in PBS with Hoechst dye 34580 (Invitrogen, USA) for 30 min. Azide-loaded microarrays were fixed with 4% paraformaldehyde and incubated with PBS containing Hoechst 34580 dye. Finally, nutlin-3a-loaded microarrays were fixed with 4% paraformaldehyde, stained with BrdU (BD Bioscience, San Jose, Calif.), and incubated in PBS containing Hoechst 34580 dye. All arrays were mounted with Fluoro-Gel (Electron Microscope Sciences, Hatfield, Pa.) and imaged using an Axiovert 200M microscope (Carl Zeiss, Oberkochen, Germany). Analysis was performed with Axiovision (Carl Zeiss, Oberkochen, Germany) by quantifying, in each drug-eluting island, the area of fluorescence and reported as relative fluorescence intensity (RFI).

[N-]=[N+]=[N-] [Azide]
Loading efficiency (%) [1]: 73 +/− 8%
response of HCT116 cell density on azide-loaded ELVAX islands (HCT116 cells; 37.5 and 75 mM azide, 5-68 h): dose-dependent response
cell counts of HCT116 on drug-loaded film after attachment (HCT116 cells; 1 h after seeding, across loading concentrations, ANOVA p=0.490): No statistical difference
HCT116 cell numbers vs drug loading concentration (HCT116 cells; after 24 h): decreased with increasing loading concentrations
